What was measured:
A549/ATCC = assay: Percentage growth inhibition of in vitro subpanel tumor cell lines; assay type: cell-based; conditions: Homo sapiens, 0.01 mM, Non-Small Cell Lung Cancer, read-out: Percentage growth inhibition (GI %)
Protocol: (§1) The anticancer activity of 4-((2-(2-(2-(4-hydroxyphenyl)-4,5-diphenyl-1H-imidazol-1-yl)acetyl)hydrazono)methyl)benzoic acid was assessed against leukemia, non-small cell lung cancer, colon cancer, central nervous system (CNS) cancer, melanoma, ovarian cancer, renal cancer, prostate cancer, and breast cancer.
(§2) Percentage growth inhibition (GI %) of in vitro subpanel tumor cell lines at 0.01 mM concentration for compound 4-((2-(2-(2-(4-hydroxyphenyl)-4,5-diphenyl-1H-imidazol-1-yl)acetyl)hydrazono)methyl)benzoic acid (Labeled as AE21 in the table) can be seen in Table 1 below.

ACHN = assay: as above; assay type: cell-based; conditions: Homo sapiens, 0.01 mM, Renal Cancer, read-out: Percentage growth inhibition (GI %)
Protocol: as §1, §2

BT-549 = assay: as above; assay type: cell-based; conditions: Homo sapiens; 0.01 mM; BT-549, Breast Cancer; read-out: Percentage growth inhibition (GI %)
Protocol: as §1, §2

CAKI-1 = assay: as above; assay type: cell-based; conditions: Homo sapiens; 0.01 mM; CAKI-1, Renal Cancer; read-out: Percentage growth inhibition (GI %)
Protocol: as §1, §2

CCRF-CEM = assay: as above; assay type: cell-based; conditions: Homo sapiens, 0.01 mM, Leukemia, read-out: Percentage growth inhibition (GI %)
Protocol: as §1, §2

DU-145 = assay: as above; assay type: cell-based; conditions: Homo sapiens; 0.01 mM; DU-145, Prostate Cancer; read-out: Percentage growth inhibition (GI %)
Protocol: as §1, §2

EKVX = assay: as above; assay type: cell-based; conditions: Homo sapiens, 0.01 mM, Non-Small Cell Lung Cancer, read-out: Percentage growth inhibition (GI %)
Protocol: as §1, §2

HCC-2998 = assay: as above; assay type: cell-based; conditions: Homo sapiens; 0.01 mM; HCC-2998, Colon Cancer; read-out: Percentage growth inhibition (GI %)
Protocol: as §1, §2

HCT-116 = assay: as above; assay type: cell-based; conditions: Homo sapiens; 0.01 mM; HCT-116, Colon Cancer; read-out: Percentage growth inhibition (GI %)
Protocol: as §1, §2

HCT-15 = assay: as above; assay type: cell-based; conditions: Homo sapiens; 0.01 mM; HCT-15, Colon Cancer; read-out: Percentage growth inhibition (GI %)
Protocol: as §1, §2

HL-60(TB) = assay: as above; assay type: cell-based; conditions: Homo sapiens, 0.01 mM, Leukemia, read-out: Percentage growth inhibition (GI %)
Protocol: as §1, §2

HOP-62 = assay: as above; assay type: cell-based; conditions: Homo sapiens; 0.01 mM; HOP-62, Non-Small Cell Lung Cancer; read-out: Percentage growth inhibition (GI %)
Protocol: as §1, §2

HS 578T = assay: as above; assay type: cell-based; conditions: Homo sapiens, 0.01 mM, Breast Cancer, read-out: Percentage growth inhibition (GI %)
Protocol: as §1, §2

HT29 = assay: as above; assay type: cell-based; conditions: Homo sapiens, HT-29; 0.01 mM; HT29, Colon Cancer; read-out: Percentage growth inhibition (GI %)
Protocol: as §1, §2

IGROV1 = assay: as above; assay type: cell-based; conditions: Homo sapiens, IGROV-1; 0.01 mM; IGROV1, Ovarian Cancer; read-out: Percentage growth inhibition (GI %)
Protocol: as §1, §2

K-562 = assay: as above; assay type: cell-based; conditions: Homo sapiens, K562; 0.01 mM; K-562, Leukemia; read-out: Percentage growth inhibition (GI %)
Protocol: as §1, §2

KM12 = assay: as above; assay type: cell-based; conditions: Homo sapiens; 0.01 mM; KM12, Colon Cancer; read-out: Percentage growth inhibition (GI %)
Protocol: as §1, §2

LOX IMVI = assay: as above; assay type: cell-based; conditions: Homo sapiens, 0.01 mM, Melanoma, read-out: Percentage growth inhibition (GI %)
Protocol: as §1, §2

M14 = assay: as above; assay type: cell-based; conditions: Homo sapiens; 0.01 mM; M14, Melanoma; read-out: Percentage growth inhibition (GI %)
Protocol: as §1, §2

MCF7 = assay: as above; assay type: cell-based; conditions: Homo sapiens; 0.01 mM; MCF7, Breast Cancer; read-out: Percentage growth inhibition (GI %)
Protocol: as §1, §2

MDA-MB-231/ATCC = assay: as above; assay type: cell-based; conditions: Homo sapiens, 0.01 mM, Breast Cancer, read-out: Percentage growth inhibition (GI %)
Protocol: as §1, §2

MDA-MB-435 = assay: as above; assay type: cell-based; conditions: Homo sapiens; 0.01 mM; MDA-MB-435, Melanoma; read-out: Percentage growth inhibition (GI %)
Protocol: as §1, §2

MOLT-4 = assay: as above; assay type: cell-based; conditions: Homo sapiens; 0.01 mM; MOLT-4, Leukemia; read-out: Percentage growth inhibition (GI %)
Protocol: as §1, §2

NCI-H226 = assay: as above; assay type: cell-based; conditions: Homo sapiens; 0.01 mM; NCI-H226, Non-Small Cell Lung Cancer; read-out: Percentage growth inhibition (GI %)
Protocol: as §1, §2

NCI-H23 = assay: as above; assay type: cell-based; conditions: Homo sapiens; 0.01 mM; NCI-H23, Non-Small Cell Lung Cancer; read-out: Percentage growth inhibition (GI %)
Protocol: as §1, §2

NCI-H460 = assay: as above; assay type: cell-based; conditions: Homo sapiens; 0.01 mM; NCI-H460, Non-Small Cell Lung Cancer; read-out: Percentage growth inhibition (GI %)
Protocol: as §1, §2

NCI-H522 = assay: as above; assay type: cell-based; conditions: Homo sapiens; 0.01 mM; NCI-H522, Non-Small Cell Lung Cancer; read-out: Percentage growth inhibition (GI %)
Protocol: as §1, §2

NCI/ADR-RES = assay: as above; assay type: cell-based; conditions: Homo sapiens, 0.01 mM, Ovarian Cancer, read-out: Percentage growth inhibition (GI %)
Protocol: as §1, §2

OVCAR-4 = assay: as above; assay type: cell-based; conditions: Homo sapiens; 0.01 mM; OVCAR-4, Ovarian Cancer; read-out: Percentage growth inhibition (GI %)
Protocol: as §1, §2

OVCAR-5 = assay: as above; assay type: cell-based; conditions: Homo sapiens; 0.01 mM; OVCAR-5, Ovarian Cancer; read-out: Percentage growth inhibition (GI %)
Protocol: as §1, §2

OVCAR-8 = assay: as above; assay type: cell-based; conditions: Homo sapiens; 0.01 mM; OVCAR-8, Ovarian Cancer; read-out: Percentage growth inhibition (GI %)
Protocol: as §1, §2

PC-3 = assay: as above; assay type: cell-based; conditions: Homo sapiens; 0.01 mM; PC-3, Prostate Cancer; read-out: Percentage growth inhibition (GI %)
Protocol: as §1, §2

RPMI-8226 = assay: as above; assay type: cell-based; conditions: Homo sapiens; 0.01 mM; RPMI-8226, Leukemia; read-out: Percentage growth inhibition (GI %)
Protocol: as §1, §2

SF-268 = assay: as above; assay type: cell-based; conditions: Homo sapiens; 0.01 mM; SF-268, CNS Cancer; read-out: Percentage growth inhibition (GI %)
Protocol: as §1, §2

SF-295 = assay: as above; assay type: cell-based; conditions: Homo sapiens; 0.01 mM; SF-295, CNS Cancer; read-out: Percentage growth inhibition (GI %)
Protocol: as §1, §2

SF-539 = assay: as above; assay type: cell-based; conditions: Homo sapiens; 0.01 mM; SF-539, CNS Cancer; read-out: Percentage growth inhibition (GI %)
Protocol: as §1, §2

SK-MEL-5 = assay: as above; assay type: cell-based; conditions: Homo sapiens; 0.01 mM; SK-MEL-5, Melanoma; read-out: Percentage growth inhibition (GI %)
Protocol: as §1, §2

SN12C = assay: as above; assay type: cell-based; conditions: Homo sapiens, 0.01 mM, Renal Cancer, read-out: Percentage growth inhibition (GI %)
Protocol: as §1, §2

SNB-75 = assay: as above; assay type: cell-based; conditions: Homo sapiens; 0.01 mM; SNB-75, CNS Cancer; read-out: Percentage growth inhibition (GI %)
Protocol: as §1, §2

SW-620 = assay: as above; assay type: cell-based; conditions: Homo sapiens; 0.01 mM; SW-620, Colon Cancer; read-out: Percentage growth inhibition (GI %)
Protocol: as §1, §2

T-47D = assay: as above; assay type: cell-based; conditions: Homo sapiens, T47D, 0.01 mM, Breast Cancer, read-out: Percentage growth inhibition (GI %)
Protocol: as §1, §2

U251 = assay: as above; assay type: cell-based; conditions: Homo sapiens, U-251; 0.01 mM; U251, CNS Cancer; read-out: Percentage growth inhibition (GI %)
Protocol: as §1, §2

UACC-257 = assay: as above; assay type: cell-based; conditions: Homo sapiens; 0.01 mM; UACC-257, Melanoma; read-out: Percentage growth inhibition (GI %)
Protocol: as §1, §2

UO-31 = assay: as above; assay type: cell-based; conditions: Homo sapiens; 0.01 mM; UO-31, Renal Cancer; read-out: Percentage growth inhibition (GI %)
Protocol: as §1, §2

## O=C(Cn1c(-c2ccc(O)cc2)nc(-c2ccccc2)c1-c1ccccc1)N/N=C/c1ccc(C(=O)O)cc1 [AE21, 4-((2-(2-(2-(4-hydroxyphenyl)-4,5-diphenyl-1H-imidazol-1-yl)acetyl)hydrazono)methyl)benzoic acid]
A549/ATCC
  inhibition at 10 µM: 64.9%
ACHN
  inhibition at 10 µM: 57.2%
BT-549
  inhibition at 10 µM: 11.9%
CAKI-1
  inhibition at 10 µM: 8.34%
CCRF-CEM
  inhibition at 10 µM: 78.4%
DU-145
  inhibition at 10 µM: 43%
EKVX
  inhibition at 10 µM: 32.1%
HCC-2998
  inhibition at 10 µM: 6.33%
HCT-116
  inhibition at 10 µM: 50.7%
HCT-15
  inhibition at 10 µM: 51.7%
HL-60(TB)
  inhibition at 10 µM: 53.6%
HOP-62
  inhibition at 10 µM: 7.6%
HS 578T
  inhibition at 10 µM: 22.5%
HT29
  inhibition at 10 µM: 55.4%
IGROV1
  inhibition at 10 µM: 4.51%
K-562
  inhibition at 10 µM: 44.7%
KM12
  inhibition at 10 µM: 16.2%
LOX IMVI
  inhibition at 10 µM: 33.4%
M14
  inhibition at 10 µM: 16.5%
MCF7
  inhibition at 10 µM: 81.1%
MDA-MB-231/ATCC
  inhibition at 10 µM: 25.6%
MDA-MB-435
  inhibition at 10 µM: 16.6%
MOLT-4
  inhibition at 10 µM: 70.1%
NCI-H226
  inhibition at 10 µM: 11.4%
NCI-H23
  inhibition at 10 µM: 4.14%
NCI-H460
  inhibition at 10 µM: 82.4%
NCI-H522
  inhibition at 10 µM: 35.3%
NCI/ADR-RES
  inhibition at 10 µM: 2.67%
OVCAR-4
  inhibition at 10 µM: 15%
OVCAR-5
  inhibition at 10 µM: 11.7%
OVCAR-8
  inhibition at 10 µM: 49%
PC-3
  inhibition at 10 µM: 43.2%
RPMI-8226
  inhibition at 10 µM: 21.4%
SF-268
  inhibition at 10 µM: 11.7%
SF-295
  inhibition at 10 µM: 29.4%
SF-539
  inhibition at 10 µM: 3.59%
SK-MEL-5
  inhibition at 10 µM: 8.04%
SN12C
  inhibition at 10 µM: 47.8%
SNB-75
  inhibition at 10 µM: 13.8%
SW-620
  inhibition at 10 µM: 67.6%
T-47D
  inhibition at 10 µM: 22.7%
U251
  inhibition at 10 µM: 48.5%
UACC-257
  inhibition at 10 µM: 2.54%
UO-31
  inhibition at 10 µM: 12.8%
other
  melting point: 220 to 222 °C

Source: patent publication US11932608B1, “4-((2-(2-(2-(4-hydroxyphenyl)-4,5-diphenyl-1H-imidazol-1-yl)acetyl)hydrazono)methyl)benzoic acid as an anticancer compound” (KING FAISAL UNIVERSITY, priority 2023, dated 2024)
